Starred links: 1 amine or outer side, 2 acyl side, 3 side chain; linkers in the order of their positions; H or OH if unused. Non-standard residues stand in square brackets, D forms with d. Residues, ends and D or L forms follow the SMILES beside them. Groups on a side chain read outwards from the residue. *: point of attachment. C18 diacid = O=C(O)CCCCCCCCCCCCCCCCC(=O)*; C17 diacid = O=C(O)CCCCCCCCCCCCCCCC(=O)*; γGlu = O=C(O)[C@H](CCC(=O)[*:2])N[*:1]; NMeY = CN[C@@H](Cc1ccc(O)cc1)C(=O)O; AEEA = NCCOCCOCC(=O)O; Aib = CC(C)(N)C(=O)O

The first series can be described thus: physchem. Particulars: pH 7.4, aqueous buffer. An outline of the steps:
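3 mg of peptide treated with 100 μL portions of 200 mM phosphate buffer pH 7.4, sonicating/vortexing up to 1 min, with further buffer added until fully dissolved. Solubility then quantified by HPLC.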
`CC[C@H](C)[C@H](NC(=O)[C@H](Cc1ccccc1)NC(=O)[C@@H](NC(=O)CNC(=O)[C@H](CCC(=O)O)NC(=O)C(C)(C)NC(=O)[C@H](Cc1ccc(O)cc1)NC)[C@@H](C)O)C(=O)N[C@@H](CO)C(=O)N[C@@H](CC(=O)O)C(=O)N[C@@H](Cc1ccc(O)cc1)C(=O)N[C@@H](CO)C(=O)N[C@H](C(=O)NC(C)(C)C(=O)N[C@@H](CCCCNC(=O)CNC(=O)CNC(=O)CNC(=O)CNC(=O)CNC(=O)CC[C@H](NC(=O)CC[C@H](NC(=O)CCCCCCCCCCCCCCCC(=O)O)C(=O)O)C(=O)O)C(=O)N[C@@H](CC(=O)O)C(=O)N[C@@H](CCCNC(=N)N)C(=O)NC(C)(C)C(=O)N[C@@H](C)C(=O)N[C@@H](CCC(N)=O)C(=O)NC(C)(C)C(=O)N[C@@H](CC(N)=O)C(=O)N[C@@H](Cc1ccccc1)C(=O)N[C@H](C(=O)N[C@@H](CC(N)=O)C(=O)N[C@@H](Cc1c[nH]c2ccccc12)C(=O)N[C@@H](CC(C)C)C(=O)N[C@@H](CC(C)C)C(=O)N[C@@H](C)C(=O)N[C@@H](CCC(N)=O)C(=O)N[C@@H](CCCNC(=N)N)C(N)=O)C(C)C)[C@@H](C)CC` [Compound 264]: the solubility is < 6000 µg/mL.
On the same count and under the same terms, under `CC[C@H](C)[C@H](NC(=O)[C@H](Cc1ccccc1)NC(=O)[C@@H](NC(=O)CNC(=O)[C@H](CCC(=O)O)NC(=O)C(C)(C)NC(=O)[C@H](Cc1ccc(O)cc1)NC)[C@@H](C)O)C(=O)N[C@@H](CO)C(=O)N[C@@H](CC(=O)O)C(=O)N[C@@H](Cc1ccc(O)cc1)C(=O)N[C@@H](CO)C(=O)N[C@H](C(=O)NC(C)(C)C(=O)N[C@@H](CCCCNC(=O)CNC(=O)CNC(=O)CNC(=O)CNC(=O)CNC(=O)CC[C@H](NC(=O)CCCCCCCCCCCCCCCC(=O)O)C(=O)O)C(=O)N[C@@H](CC(=O)O)C(=O)N[C@@H](CCCNC(=N)N)C(=O)NC(C)(C)C(=O)N[C@@H](C)C(=O)N[C@@H](CCC(N)=O)C(=O)NC(C)(C)C(=O)N[C@@H](CC(=O)O)C(=O)N[C@@H](Cc1ccccc1)C(=O)N[C@H](C(=O)N[C@@H](CC(N)=O)C(=O)N[C@@H](Cc1c[nH]c2ccccc12)C(=O)N[C@@H](CC(C)C)C(=O)N[C@@H](CC(C)C)C(=O)N[C@@H](C)C(=O)N[C@@H](CCC(N)=O)C(=O)N[C@@H](CCCNC(=N)N)C(N)=O)C(C)C)[C@@H](C)CC` [Compound 265] stands ≥ 7500 µg/mL.
The same measure, in the same setting: under `CC[C@H](C)[C@H](NC(=O)[C@H](Cc1ccccc1)NC(=O)[C@@H](NC(=O)CNC(=O)[C@H](CCC(=O)O)NC(=O)C(C)(C)NC(=O)[C@H](Cc1ccc(O)cc1)NC)[C@@H](C)O)C(=O)N[C@@H](CO)C(=O)N[C@@H](CC(=O)O)C(=O)N[C@@H](Cc1ccc(O)cc1)C(=O)N[C@@H](CO)C(=O)N[C@H](C(=O)NC(C)(C)C(=O)N[C@@H](CC(C)C)C(=O)N[C@@H](CC(=O)O)C(=O)N[C@@H](CCCNC(=N)N)C(=O)NC(C)(C)C(=O)N[C@@H](C)C(=O)N[C@@H](CCC(N)=O)C(=O)NC(C)(C)C(=O)N[C@@H](CCCCNC(=O)COCCOCCNC(=O)COCCOCCNC(=O)CC[C@H](NC(=O)CC[C@H](NC(=O)CCCCCCCCCCCCCCCCC(=O)O)C(=O)O)C(=O)O)C(=O)N[C@@H](Cc1ccccc1)C(=O)N[C@H](C(=O)N[C@@H](CC(N)=O)C(=O)N[C@@H](Cc1c[nH]c2ccccc12)C(=O)N[C@@H](CC(C)C)C(=O)N[C@@H](CC(C)C)C(=O)N[C@@H](C)C(=O)N[C@@H](CCC(N)=O)C(=O)N[C@@H](CCCNC(=N)N)C(N)=O)C(C)C)[C@@H](C)CC` [Compound 267] (H-[NMeY][Aib]EGTFISDYSI[Aib]LDR[Aib]AQ[Aib]K([AEEA-AEEA-γGlu-γGlu-C18 diacid])FVNWLLAQR-NH2) stands < 6000 µg/mL.
Consider `CC[C@H](C)[C@H](NC(=O)[C@H](CO)NC(=O)[C@H](Cc1ccc(O)cc1)NC(=O)[C@H](CC(=O)O)NC(=O)[C@H](CO)NC(=O)[C@@H](NC(=O)[C@H](Cc1ccccc1)NC(=O)[C@@H](NC(=O)CNC(=O)[C@H](CCC(=O)O)NC(=O)C(C)(C)NC(=O)[C@H](Cc1ccc(O)cc1)NC)[C@@H](C)O)[C@@H](C)CC)C(=O)N[C@@H](C)C(=O)N[C@@H](CC(C)C)C(=O)N[C@@H](CC(=O)O)C(=O)N[C@@H](CCCNC(=N)N)C(=O)NC(C)(C)C(=O)N[C@@H](C)C(=O)N[C@@H](CCC(N)=O)C(=O)NC(C)(C)C(=O)N[C@@H](CCCCNC(=O)COCCOCCNC(=O)COCCOCCNC(=O)CC[C@H](NC(=O)CC[C@H](NC(=O)CCCCCCCCCCCCCCCCC(=O)O)C(=O)O)C(=O)O)C(=O)N[C@@H](Cc1ccccc1)C(=O)N[C@H](C(=O)N[C@@H](CC(N)=O)C(=O)N[C@@H](Cc1c[nH]c2ccccc12)C(=O)N[C@@H](CC(C)C)C(=O)N[C@@H](CC(C)C)C(=O)N[C@@H](C)C(=O)N[C@@H](CCC(N)=O)C(=O)N[C@@H](CCCNC(=N)N)C(N)=O)C(C)C` [Compound 269] (H-[NMeY][Aib]EGTFISDYSIALDR[Aib]AQ[Aib]K([AEEA-AEEA-γGlu-γGlu-C18 diacid])FVNWLLAQR-NH2), for which the solubility was ≥ 7500 µg/mL.

Staying with this series, now noted: pH 7.4, aqueous buffer, pH 7.4 Phosphate Buffer - Solubility, 200 mM Phosphate buffer pH 7.4.
Regarding `CC[C@H](C)[C@H](NC(=O)[C@H](Cc1ccccc1)NC(=O)[C@@H](NC(=O)CNC(=O)[C@H](CCC(=O)O)NC(=O)C(C)(C)NC(=O)[C@H](Cc1ccc(O)cc1)NC)[C@@H](C)O)C(=O)N[C@@H](CO)C(=O)N[C@@H](CC(=O)O)C(=O)N[C@@H](Cc1ccc(O)cc1)C(=O)N[C@@H](CO)C(=O)N[C@H](C(=O)NC(C)(C)C(=O)N[C@@H](CCCCNC(=O)COCCOCCNC(=O)COCCOCCNC(=O)CC[C@H](NC(=O)CCCCCCCCCCCCCCCC(=O)O)C(=O)O)C(=O)N[C@@H](CC(=O)O)C(=O)N[C@@H](CCCNC(=N)N)C(=O)NC(C)(C)C(=O)N[C@@H](C)C(=O)N[C@@H](CCC(N)=O)C(=O)NC(C)(C)C(=O)N[C@@H](CC(N)=O)C(=O)N[C@@H](Cc1ccccc1)C(=O)N[C@H](C(=O)N[C@@H](CC(N)=O)C(=O)N[C@@H](Cc1c[nH]c2ccccc12)C(=O)N[C@@H](CC(C)C)C(=O)N[C@@H](CC(C)C)C(=O)N[C@@H](C)C(=O)N[C@@H](CCC(N)=O)C(=O)N[C@@H](CCCNC(=N)N)C(=O)N1CCC[C@H]1C(=O)N[C@@H](CO)C(=O)N[C@@H](CO)C(=O)NCC(=O)N[C@@H](C)C(=O)N1CCC[C@H]1C(=O)N1CCC[C@H]1C(=O)N1CCC[C@H]1C(=O)N[C@@H](CO)C(N)=O)C(C)C)[C@@H](C)CC` [Compound 263] (H-[NMeY][Aib]EGTFISDYSI[Aib]K([AEEA-AEEA-γGlu-C17 diacid])DR[Aib]AQ[Aib]NFVNWLLAQRPSSGAPPPS-NH2), the solubility is ≥ 7500 µg/mL.
Same read-out and setting: in the case of `CC[C@H](C)[C@H](NC(=O)[C@H](CO)NC(=O)[C@H](Cc1ccc(O)cc1)NC(=O)[C@H](CC(=O)O)NC(=O)[C@H](CO)NC(=O)[C@@H](NC(=O)[C@H](Cc1ccccc1)NC(=O)[C@@H](NC(=O)CNC(=O)[C@H](CCC(=O)O)NC(=O)C(C)(C)NC(=O)[C@H](Cc1ccc(O)cc1)NC)[C@@H](C)O)[C@@H](C)CC)C(=O)N[C@@H](C)C(=O)N[C@@H](CC(C)C)C(=O)N[C@@H](CC(=O)O)C(=O)N[C@@H](CCCNC(=N)N)C(=O)N[C@@H](CCCCNC(=O)COCCOCCNC(=O)COCCOCCNC(=O)CC[C@H](NC(=O)CCCCCCCCCCCCCCCC(=O)O)C(=O)O)C(=O)N[C@@H](C)C(=O)N[C@@H](CCC(N)=O)C(=O)NC(C)(C)C(=O)N[C@@H](CC(N)=O)C(=O)N[C@@H](Cc1ccccc1)C(=O)N[C@H](C(=O)N[C@@H](CC(N)=O)C(=O)N[C@@H](Cc1c[nH]c2ccccc12)C(=O)N[C@@H](CC(C)C)C(=O)N[C@@H](CC(C)C)C(=O)N[C@@H](C)C(=O)N[C@@H](CCC(N)=O)C(=O)N[C@@H](CCCNC(=N)N)C(=O)N1CCC[C@H]1C(=O)N[C@@H](CO)C(=O)N[C@@H](CO)C(=O)NCC(=O)N[C@@H](C)C(=O)N1CCC[C@H]1C(=O)N1CCC[C@H]1C(=O)N1CCC[C@H]1C(=O)N[C@@H](CO)C(N)=O)C(C)C` [Compound 266] (H-[NMeY][Aib]EGTFISDYSIALDRK([AEEA-AEEA-γGlu-C17 diacid])AQ[Aib]NFVNWLLAQRPSSGAPPPS-NH2) it was < 6000 µg/mL; in that of `CC[C@H](C)[C@H](NC(=O)[C@H](CO)NC(=O)[C@H](Cc1ccc(O)cc1)NC(=O)[C@H](CC(=O)O)NC(=O)[C@H](CO)NC(=O)[C@@H](NC(=O)[C@H](Cc1ccccc1)NC(=O)[C@@H](NC(=O)CNC(=O)[C@H](CCC(=O)O)NC(=O)C(C)(C)NC(=O)[C@H](Cc1ccc(O)cc1)NC)[C@@H](C)O)[C@@H](C)CC)C(=O)N[C@@H](C)C(=O)N[C@@H](CC(C)C)C(=O)N[C@@H](CC(=O)O)C(=O)N[C@@H](CCCNC(=N)N)C(=O)NC(C)(C)C(=O)N[C@@H](CCCCNC(=O)COCCOCCNC(=O)COCCOCCNC(=O)CC[C@H](NC(=O)CCCCCCCCCCCCCCCC(=O)O)C(=O)O)C(=O)N[C@@H](CCC(N)=O)C(=O)NC(C)(C)C(=O)N[C@@H](CC(N)=O)C(=O)N[C@@H](Cc1ccccc1)C(=O)N[C@H](C(=O)N[C@@H](CC(N)=O)C(=O)N[C@@H](Cc1c[nH]c2ccccc12)C(=O)N[C@@H](CC(C)C)C(=O)N[C@@H](CC(C)C)C(=O)N[C@@H](C)C(=O)N[C@@H](CCC(N)=O)C(=O)N[C@@H](CO)C(=O)N1CCC[C@H]1C(=O)N[C@@H](CO)C(=O)N[C@@H](CO)C(=O)NCC(=O)N[C@@H](C)C(=O)N1CCC[C@H]1C(=O)N1CCC[C@H]1C(=O)N1CCC[C@H]1C(=O)N[C@@H](CO)C(N)=O)C(C)C` [Compound 268] (H-[NMeY][Aib]EGTFISDYSIALDR[Aib]K([AEEA-AEEA-γGlu-C17 diacid])Q[Aib]NFVNWLLAQSPSSGAPPPS-NH2), ≥ 10000 µg/mL.

In general, solubility refers to how much of the substance goes into solution per volume. A high value points to much dissolved substance.

For the origin of these results see patent publication US20230143604A1, “QW DOSING OF GIP RECEPTOR AGONIST PEPTIDE COMPOUNDS AND USES THEREOF” (TAKEDA PHARMACEUTICAL COMPANY LIMITED, priority 2020, published 2023).
